Results taken from the RepoRT retention time repository.

Assay: Waters ACQUITY UPLC BEH C18, 50 × 2.1 mm, 1.7 µm, 30 °C, 0.3 mL/min, estimated dead time 0.37 min; A: water + 0.3% formic acid; B: acetonitrile; gradient (min/%B) 0.5/5 3.5/20 5.5/25 7/57 8/90
Settings: stereoisomer not certain

## CC12Cc3c([nH][nH]c3=O)CC1CCC1C2CCC2(C)C1CCC2(C)O (stereo unspecified)
  LC retention time: 6.7 min
